This is an account of results in patent US8912218B2, “Alkylthiazol carbamate derivatives, preparation thereof and therapeutic use thereof” (Sanofi, priority 2008, dated 2014).

For orientation: melting point means the temperature of the solid-liquid transition.

Data set [1] has as its target T1, FAAH (Fatty Acid Amide Hydrolase) (Mus musculus, UniProt O08914).
T1 construct: Membrane homogenates are prepared at the time of use by homogenizing the tissues; from tissue; host or cells: mouse brain (minus the cerebellum), membrane homogenate
T1 sequence (O08914 1-579): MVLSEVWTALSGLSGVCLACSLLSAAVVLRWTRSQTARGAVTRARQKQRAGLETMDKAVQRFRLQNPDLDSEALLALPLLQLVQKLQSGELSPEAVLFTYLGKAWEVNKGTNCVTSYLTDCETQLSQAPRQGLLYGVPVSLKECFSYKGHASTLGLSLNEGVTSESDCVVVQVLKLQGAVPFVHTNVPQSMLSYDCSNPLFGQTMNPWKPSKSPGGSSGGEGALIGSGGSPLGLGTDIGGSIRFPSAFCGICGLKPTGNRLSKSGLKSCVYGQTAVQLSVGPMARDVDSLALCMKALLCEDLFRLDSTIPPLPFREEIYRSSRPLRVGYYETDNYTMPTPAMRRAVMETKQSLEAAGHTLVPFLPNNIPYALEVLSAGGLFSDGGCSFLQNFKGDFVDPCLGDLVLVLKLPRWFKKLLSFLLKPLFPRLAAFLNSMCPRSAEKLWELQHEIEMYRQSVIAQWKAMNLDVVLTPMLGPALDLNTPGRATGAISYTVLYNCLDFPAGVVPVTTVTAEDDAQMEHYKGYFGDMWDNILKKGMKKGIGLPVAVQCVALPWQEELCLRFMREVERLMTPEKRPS
Briefly: radioenzymatic assay of hydrolysis of anandamide [1-3H ethanolamine] by FAAH. Format: biochemical. The note with it: mouse brain membrane homogenates; pre-incubation 20 minutes at 25° C.; anandamide final concentration 10 μM; read-out: IC50 (concentration inhibiting by 50% the control enzymatic activity of FAAH). As to the method:
The compounds of the invention were subjected to pharmacological tests allowing determination of their inhibitory effect on the enzyme FAAH (Fatty Acid Amide Hydrolase).
Accordingly, mouse brains (minus the cerebellum) are removed and stored at −80° C. Membrane homogenates are prepared at the time of use by homogenizing the tissues using a Precellys® apparatus in the reaction buffer (10 mM Tris-HCl pH=8, 150 mM NaCl and 1 mM ethylenediaminetetraacetic acid (EDTA)). The enzymatic reaction is conducted in 96-well Multiscreen filter plates, in a final volume of 70 μl. Reaction buffer supplemented with bovine serum albumin without fatty acids (BSA, 1 mg/ml) is used for the enzymatic reaction, the dilution of the compounds and of anandamide [1-^3H ethanolamine]. Added in succession to the wells are the reaction buffer containing the BSA (43 μl/well), the diluted test compounds at different concentrations (7 μl/well containing 1% DMSO) and the membrane preparation (10 μl/well or […] per assay). After the compounds have been pre-incubated with the enzyme at 25° C. for 20 minutes, the reaction is initiated by the addition of anandamide [1-^3H ethanolamine] […] The mixture is stirred for 10 minutes and then the aqueous phase containing the ethanolamine [1-^3H] is recovered by filtration under vacuum and counted by liquid scintillation.

The test system of the next data set is male OF 1 mice. The experiment in a line: analgesia test: abdominal stretches induced by PBQ (phenylbenzoquinone). Format: in vivo. The note with it: 30 mg/kg p.o. at 120 minutes, PBQ 2 mg/kg i.p. As to the method: The in vivo activity of the compounds of the invention was evaluated in an analgesia test.
Accordingly, intraperitoneal (i.p.) administration of PBQ (phenylbenzoquinone, 2 mg/kg in a 0.9% sodium chloride solution containing 5% of ethanol) to male OF 1 mice weighing 25 to 30 g causes abdominal stretches, on average 30 twists or contractions during the period from 5 to 15 minutes after injection. The test compounds are administered orally (p.o.) or intraperitoneally (i.p.) in suspension in Tween 80 at 0.5%, 60 minutes or 120 minutes before the administration of PBQ.
For example, compounds 28 and 30 of the table reduce by 33% and 80%, respectively, the number of stretches induced by PBQ, at a dose of 30 mg/kg p.o. at 120 minutes.

For the molecule `O=C(NCCC1CCN(c2ccc(-c3ccc(F)cc3)cn2)CC1)OCc1nccs1` [Compound 28, Thiazol-2-ylmethyl 2-[5′-(4-fluorophenyl)-3,4,5,6-tetrahydro-2H-[1,2′]bipyridinyl-4-yl]-ethylcarbamate], the melting point fell in the range of 131 to 133 °C. In addition, in data set [1], the IC50 turned out to be 3 nM. Further, in the data set with male OF 1 mice, the “reduction of the number of stretches induced by PBQ” value is listed as 33%.

`O=C(NCCC1CCN(c2ccc(-c3ccc(F)cc3)cn2)CC1)OCc1cncs1` [Compound 33, Thiazol-5-ylmethyl 2-[5′-(4-fluorophenyl)-3,4,5,6-tetrahydro-2H-[1,2′]bipyridinyl-4-yl]ethylcarbamate] had a melting point of 100 to 102 °C.

`O=C(NCCC1CCN(c2cccc(-c3ccc(F)cc3)n2)CC1)OC(c1nccs1)C(F)(F)F` (racemic) [Compound 50, 2,2,2-Trifluoro-1-thiazol-2-ylethyl (+/−)-2-[6′-(4-fluorophenyl)-3,4,5,6-tetrahydro-2H-[1,2′]bipyridinyl-4-yl]ethylcarbamate] returned a melting point of 121 to 123 °C.

As to `O=C(NCCC1CCN(c2ccc3cc(Cl)ccc3n2)CC1)OC(c1nccs1)C(F)(F)F` (racemic) [Compound 106, 2,2,2-Trifluoro-1-thiazol-2-ylethyl (+/−)-2-[1-(6-chloroquinolin-2-yl)piperidin-4-yl]ethylcarbamate], the melting point lay in the range of 114 to 116 °C.

For `CCOc1ccc(-c2ccc(N3CCC(CCNC(=O)OCc4nccs4)CC3)nc2)cc1` [Compound 38, Thiazol-2-ylmethyl 2-[5′-(4-ethoxyphenyl)-3,4,5,6-tetrahydro-2H-[1,2′]bipyridinyl-4-yl]ethylcarbamate], the melting point was in the range of 157 to 159 °C.

`O=C(NCCC1CCN(c2ccc(-c3ccc(F)cc3)cn2)CC1)OCc1cscn1` [Compound 30, Thiazol-4-ylmethyl 2-[5′-(4-fluorophenyl)-3,4,5,6-tetrahydro-2H-[1,2′]bipyridinyl-4-yl]ethylcarbamate] showed a melting point of 130 to 132 °C. For the same molecule, in data set [1], the IC50 came to 7 nM. Also, the “reduction of the number of stretches induced by PBQ” value in the data set on male OF 1 mice came to 80%.

For `O=C(NCCC1CCN(c2ccc3cc(F)ccc3n2)CC1)OCc1cncs1` [Compound 117, Thiazol-5-ylmethyl 2-[1-(6-fluoroquinolin-2-yl)piperidin-4-yl]ethylcarbamate], the melting point lay in the range of 100 to 102 °C.
